Test results: patent US20100304375A1, “Influenza Virus Genome Replication and Transcription System in Yeast Cells” (UNIVERSITY OF TSUKUBA, priority 2007, published 2010)

Test system: influenza virus genome replication and transcription in yeast cells
Assay type: cell-based

`C[C@@H]1C[C@@H]([C@H](O)CC2CC(=O)NC(=O)C2)C(=O)[C@@H](C)C1` [cycloheximide] was tested, and the “synthesis level of viral RNAs” value was “markedly reduced”.
